According to patent publication US20140271847A1, “FORMULATIONS AND METHODS FOR RAPID PENILE ERECTIONS” (SatisPharma, LLC, priority 2013, published 2014):
Structures can show the parent of a compound that is named as a salt.

Columns and labels:
[1] = cited from earlier work
[2] = system: penis; experiment: Time to penile erection / firmness after taking the ED medication or formulation; type: in vivo, human; conditions: blood circulation limited to about 50%; for time it remains effective / time to become effective: normal dose of 100 mg Viagra® or 10 mg Levitra®, one subject
From the text: Responses of individuals to ED medications may vary widely from one to another and from time to time. The nature and intensity of emotional and physical stimulation are significant factors, and the health of the individual can be significant. Fatigue, time of day, time since last coitus or ejaculation, and blood circulation are factors influencing response. One particular subject had no response to Cialis®. Their heart damage and occluded artery limit blood circulation to about 50%. Thus this particular subject is not a good benchmark for measuring the effectiveness of each formulation; this particular subject experiences a normal dose of 100 mg Viagra® or 10 mg Levitra® usually takes about 2 hours to become effective and then remains effective for about 8 hours (double the usual times for a person with normal blood circulation). Nevertheless, this subject has achieved erection and cotius within 30 minutes using some formulations of this invention.

[3] = Solubility of ED medications as stated in the description; type: physicochemical
From the text: In order for an ED medication to be absorbed into mucosal tissues, it must first be dissolved in a medium of transport. […] Sildenafil citrate is also more soluble in ethanol than water and in propylene glycol than in water.

[4] = Solubilities of ED medications in solvents known to permeate the skin (Example 1); type: physicochemical
Protocol: A series of experiments were performed in order to learn the solubilities of ED medications in solvents known to permeate the skin safely.

Compound | solubility in water (in words) [1] | response to ED medication ([2]; one particular subject) | solubility in alcohols (in words) ([1]; alcohols) | time it remains effective [2] | time to become effective [2] | solubility in nicotine [3] | solubility in ethanol compared with water ([1]; ethanol versus water) | solubility in propylene glycol compared with water ([1]; propylene glycol versus water) | solubility in water relative to pH 7.0 ([1]; water at pH=4, relative to 3.5 mg/ml at pH=7.0) | solubility in water ([1]; water at pH=7.0) [mg/mL] | Result (solubility) ([4]; 35 mg sildenafil citrate in diethylene glycol monoethyl ether, 10 ml) | Result (solubility) ([4]; 35 mg sildenafil citrate in ethanol, 190 proof, 10 ml) | Result (solubility) ([4]; 35 mg sildenafil citrate in glycerin, 10 ml + citric acid, 150 mg) | Result (solubility) ([4]; 35 mg sildenafil citrate in isopropyl myristate, 10 ml) | Result (solubility) ([4]; 35 mg sildenafil citrate in propylene glycol, 10 ml) | Result (solubility) ([4]; 35 mg sildenafil citrate in triacetin 10 ml) | Result (solubility) ([4]; 49 mg sildenafil citrate in nicotine, 2 ml) | Result (solubility) ([4]; 70 mg sildenafil citrate in ethanol, 190 proof, 10 ml) | Result (solubility) ([4]; 70 mg sildenafil citrate in propylene glycol, 10 ml)
CN1CC(=O)N2[C@H](c3ccc4c(c3)OCO4)c3[nH]c4ccccc4c3C[C@@H]2C1=O [Tadalafil, tadalafil] | freely soluble | no response | – | – | – | – | – | – | – | – | – | – | – | – | – | – | – | – | –
CCCc1nc(C)c2c(=O)[nH]c(-c3cc(S(=O)(=O)N4CCN(CC)CC4)ccc3OCC)nn12 [Vardenafil, vardenafil hydrochloride] | freely soluble | – | freely soluble | about 8 hours | about 2 hours | – | – | – | – | – | – | – | – | – | – | – | – | – | –
CCCc1nn(C)c2c(=O)[nH]c(-c3cc(S(=O)(=O)N4CCN(C)CC4)ccc3OCC)nc12.O=C(O)CC(O)(CC(=O)O)C(=O)O [sildenafil citrate] | – | – | – | about 8 hours | about 2 hours | surprisingly high solubility | more soluble | more soluble | about triple | 3.5 | slightly soluble | fully soluble | dispersion | mostly soluble | fully soluble | dispersion | fully soluble | fully soluble | mostly soluble
